Experimental data taken from the supplement of paper PMC4862054.
Blank lines part the entries; values can stand above or below the compound they belong to.

Tests used:
Details in all cases: 72 h
MFM-223 [1] = tested on: MFM-223
Protocol: (§1)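 Drug sensitivity and resistance testing (DSRT) of breast cancer cell lines in 384-well plates, 5 concentrations in 10-fold dilutions over a compound-specific 10,000-fold range. After 72 h, cytotoxicity was read by CellTox Green fluorescence and viability by CellTiter-Glo luminescence (multiplexed), normalised to DMSO and benzethonium chloride controls. EC50 is the inflection point of the fitted dose-response curve (bottom asymptote free, so it can be relative for partial curves) and is censored at the highest tested concentration. Rows with DSS 0 (no meaningful response) were excluded.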

MDA-MB-231 [2] = tested on: MDA-MB-231
Protocol: as §1

MDA-MB-468 [3] = tested on: MDA-MB-468
Protocol: as §1

CAL-85-1 [4] = tested on: CAL-85-1
Protocol: as §1

MDA-MB-436 [5] = tested on: MDA-MB-436
Protocol: as §1

CAL-51 [6] = tested on: CAL-51
Protocol: as §1

CAL-148 [7] = tested on: CAL-148
Protocol: as §1

MDA-MB-453 [8] = tested on: MDA-MB-453
How it was run: (§2)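 Viability of breast cancer cell lines was measured with CellTiter-Blue after 72 h of incubation on compound-loaded 384-well plates. Cells were seeded in 20 µl onto compound dissolved in 5 µl medium, and 2.5 µl reagent was added for 2 h at 37 °C before reading at 560/590 nm. EC50 was fitted from percent-inhibition dose-response data censored at the highest concentration, normalised per plate to vehicle and a positive kill control, with zero drug sensitivity score rows dropped.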

CAL-85-1 [9] = tested on: CAL-85-1; remark: listed apart in the source
How it was run: as §2

CAL-51 [10] = tested on: CAL-51; remark: listed apart in the source
How it was run: as §2

DU-4475 [11] = tested on: DU-4475
How it was run: as §2

CAL-148 [12] = tested on: CAL-148; remark: listed apart in the source
How it was run: as §2

MFM-223 [13] = tested on: MFM-223; remark: listed apart in the source
How it was run: as §2

SK-BR-3 [14] = tested on: SK-BR-3
How it was run: as §2

BT-474 [15] = tested on: BT-474
How it was run: as §2

MDA-MB-231 [16] = tested on: MDA-MB-231; remark: listed apart in the source
How it was run: as §2

MDA-MB-468 [17] = tested on: MDA-MB-468; remark: listed apart in the source
How it was run: as §2

CAL-120 [18] = tested on: CAL-120
How it was run: as §2

HCC1599 [19] = tested on: HCC1599
How it was run: as §2

Hs578T [20] = tested on: Hs578T
How it was run: as §2

HCC1937 [21] = tested on: HCC1937
How it was run: as §2

HCC1143 [22] = tested on: HCC1143
How it was run: as §2

MFM-223 [23] = tested on: MFM-223; remark: listed apart in the source
How it was run: (§3)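 In this assay, breast cancer cell lines spent 72 h with compound at 5 concentrations in 10-fold steps over a compound-specific 10,000-fold range. The first readout was cell death by CellTox Green fluorescence, and the second was viability by CellTiter-Glo luminescence, each normalised per plate to 0.1 % DMSO and a positive kill control. EC50 came from the dose-response curves, censored at the top concentration.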

SK-BR-3 [24] = tested on: SK-BR-3; remark: listed apart in the source
How it was run: as §3

BT-474 [25] = tested on: BT-474; remark: listed apart in the source
How it was run: as §3

HDQ-P1 [26] = tested on: HDQ-P1
How it was run: as §3

MDA-MB-231 [27] = tested on: MDA-MB-231; remark: listed apart in the source
How it was run: as §3

MDA-MB-468 [28] = tested on: MDA-MB-468; remark: listed apart in the source
How it was run: as §3

MDA-MB-453 [29] = tested on: MDA-MB-453; remark: listed apart in the source
How it was run: as §3

HCC1599 [30] = tested on: HCC1599; remark: listed apart in the source
How it was run: as §3

BT-549 [31] = tested on: BT-549
How it was run: as §3

CAL-85-1 [32] = tested on: CAL-85-1; remark: listed apart in the source
How it was run: as §3

MDA-MB-436 [33] = tested on: MDA-MB-436; remark: listed apart in the source
How it was run: as §3

CAL-51 [34] = tested on: CAL-51; remark: listed apart in the source
How it was run: as §3

DU-4475 [35] = tested on: DU-4475; remark: listed apart in the source
How it was run: as §3

Hs578T [36] = tested on: Hs578T; remark: listed apart in the source
How it was run: as §3

CAL-148 [37] = tested on: CAL-148; remark: listed apart in the source
How it was run: as §3

HCC1143 [38] = tested on: HCC1143; remark: listed apart in the source
How it was run: as §3

CAL-120 [39] = tested on: CAL-120; remark: listed apart in the source
How it was run: as §3

BT-549 [40] = tested on: BT-549; remark: listed apart in the source
How it was run: as §2

MDA-MB-436 [41] = tested on: MDA-MB-436; remark: listed apart in the source
How it was run: as §2

HDQ-P1 [42] = tested on: HDQ-P1; remark: listed apart in the source
How it was run: as §2

MCF-10A = tested on: MCF-10A
How it was run: as §3

HCC1937 [43] = tested on: HCC1937; remark: listed apart in the source
How it was run: as §3

EC50, CellTiter-Blue viability (MDA-MB-453 [8]): 2.86 µM
EC50, CellTiter-Blue viability (SK-BR-3 [14]): 0.777 µM
EC50, CellTiter-Blue viability (BT-474 [15]): 3.52 µM
EC50, CellTiter-Blue viability (MDA-MB-231 [16]): 2.88 µM
EC50, CellTiter-Blue viability (MDA-MB-468 [17]): 1.52 µM
EC50, CellTiter-Blue viability (HCC1599 [19]): 3.68 µM
EC50, CellTiter-Blue viability (HCC1937 [21]): 1.17 µM
EC50, CellTiter-Blue viability (HCC1143 [22]): 5.1 µM
EC50, CellTiter-Glo (SK-BR-3 [24]): 2.16 µM
EC50, CellTiter-Glo (BT-474 [25]): 7.64 µM
EC50, CellTiter-Glo (MDA-MB-231 [27]): 7.17 µM
EC50, CellTiter-Glo (MDA-MB-468 [28]): 4.17 µM
EC50, CellTiter-Glo (MDA-MB-453 [29]): 2.16 µM
EC50, CellTiter-Glo (HCC1599 [30]): 4.84 µM
EC50, CellTiter-Glo (BT-549 [31]): 0.925 µM
EC50, CellTiter-Glo (MDA-MB-436 [33]): 1.33 µM
EC50, CellTiter-Glo (HCC1143 [38]): 4.76 µM
Structure (SMILES): Nc1ccccc1NC(=O)c1ccc(CNC(=O)OCc2cccnc2)cc1 [Entinostat]
EC50, CellTox Green (MFM-223 [1]): 1.44 µM
EC50, CellTox Green (MDA-MB-231 [2]): 7.14 µM
EC50, CellTox Green (MDA-MB-468 [3]): 1.23 µM
EC50, CellTox Green (CAL-85-1 [4]): 4.31 µM
EC50, CellTox Green (MDA-MB-436 [5]): 6.22 µM
EC50, CellTox Green (CAL-51 [6]): 1.14 µM
EC50, CellTox Green (CAL-148 [7]): 4.16 µM
EC50, CellTiter-Blue viability (CAL-85-1 [9]): 2.7 µM
EC50, CellTiter-Blue viability (CAL-51 [10]): 7.86 µM
EC50, CellTiter-Blue viability (DU-4475 [11]): 5.7 µM
EC50, CellTiter-Blue viability (CAL-148 [12]): 2.99 µM
EC50, CellTiter-Blue viability (MFM-223 [13]): 2.71 µM
EC50, CellTiter-Blue viability (CAL-120 [18]): 1.89 µM
EC50, CellTiter-Blue viability (Hs578T [20]): 5.88 µM
EC50, CellTiter-Glo (MFM-223 [23]): 4.85 µM
EC50, CellTiter-Glo (HDQ-P1 [26]): 2.38 µM
EC50, CellTiter-Glo (CAL-85-1 [32]): 8.31 µM
EC50, CellTiter-Glo (CAL-51 [34]): 0.356 µM
EC50, CellTiter-Glo (DU-4475 [35]): 3.83 µM
EC50, CellTiter-Glo (Hs578T [36]): 1.55 µM
EC50, CellTiter-Glo (CAL-148 [37]): 2.56 µM

EC50, CellTiter-Glo (BT-474 [25]): > 10 µM
EC50, CellTiter-Glo (MDA-MB-468 [28]): 1.35 µM
Structure (SMILES): CCc1cncnc1N1CCN(Cc2nc3ccc(C(F)(F)F)cc3[nH]2)CC1
EC50, CellTiter-Glo (CAL-120 [39]): > 10 µM
EC50, CellTiter-Glo (CAL-51 [34]): 0.543 µM

EC50, CellTiter-Glo (BT-474 [25]): 2.95 µM
EC50, CellTiter-Glo (MDA-MB-231 [27]): 4.74 µM
EC50, CellTiter-Glo (MDA-MB-468 [28]): 7.44 µM
EC50, CellTiter-Glo (BT-549 [31]): 4.67 µM
EC50, CellTiter-Glo (MDA-MB-436 [33]): 6.9 µM
Structure (SMILES): CC[C@H](Nc1ncnc2[nH]cnc12)c1nc2cccc(F)c2c(=O)n1-c1ccccc1 [GS-1101]
EC50, CellTox Green (MDA-MB-231 [2]): 8.63 µM
EC50, CellTox Green (MDA-MB-468 [3]): 1.43 µM
EC50, CellTiter-Glo (HDQ-P1 [26]): 4.3 µM
EC50, CellTiter-Glo (CAL-120 [39]): 8.05 µM

Structure (SMILES): NCCCNCCSP(=O)(O)O [Amifostine]
EC50, CellTiter-Blue viability (HCC1599 [19]): 0.224 µM

EC50, CellTiter-Blue viability (MDA-MB-453 [8]): 7.47 µM
EC50, CellTiter-Blue viability (SK-BR-3 [14]): 9.66 µM
EC50, CellTiter-Blue viability (MDA-MB-468 [17]): 3.25 µM
EC50, CellTiter-Blue viability (HCC1599 [19]): 0.82 µM
EC50, CellTiter-Blue viability (BT-549 [40]): 3.55 µM
EC50, CellTiter-Blue viability (MDA-MB-436 [41]): 4.31 µM
EC50, CellTiter-Blue viability (HCC1937 [21]): 4.81 µM
EC50, CellTiter-Blue viability (HCC1143 [22]): 8.31 µM
Structure (SMILES): O=C(O)C(=O)O.[NH-][C@@H]1CCCC[C@H]1[NH-].[Pt+2] [Oxaliplatin]
EC50, CellTiter-Blue viability (CAL-51 [10]): 9.11 µM
EC50, CellTiter-Blue viability (DU-4475 [11]): 9.22 µM
EC50, CellTiter-Blue viability (CAL-148 [12]): 5.67 µM

EC50, CellTiter-Blue viability (MDA-MB-453 [8]): 7.69 µM
EC50, CellTiter-Blue viability (MDA-MB-436 [41]): 0.183 µM
EC50, CellTiter-Blue viability (HCC1937 [21]): 0.329 µM
Structure (SMILES): Cc1ccc(-c2cc(C(F)(F)F)nn2-c2ccc(S(N)(=O)=O)cc2)cc1 [Celecoxib]
EC50, CellTiter-Blue viability (HDQ-P1 [42]): 0.0675 µM

EC50, CellTiter-Blue viability (MDA-MB-453 [8]): 0.0277 µM
EC50, CellTiter-Blue viability (BT-549 [40]): 0.52 µM
Structure (SMILES): C[C@H]1C[C@@H]2[C@H]([C@@H](O)C[C@@]3(C)[C@H]2CC[C@]3(O)C(=O)CO)[C@@]2(C)C=CC(=O)C=C12 [Methylprednisolone]
EC50, CellTiter-Glo (CAL-120 [39]): 0.0235 µM

Structure (SMILES): CNC(=O)c1cc(Oc2ccc(NC(=O)Nc3cc(C(C)(C)C)nn3-c3ccc4ncccc4c3)c(F)c2)ccn1 [Rebastinib]
EC50, CellTiter-Glo (MFM-223 [23]): 0.0313 µM
EC50, CellTiter-Glo (CAL-120 [39]): 0.155 µM

Structure (SMILES): Oc1ncc(N(CCCl)CCCl)c(O)n1 [Uracil mustard]
EC50, CellTiter-Blue viability (HCC1937 [21]): 0.962 µM

EC50, CellTiter-Blue viability (MDA-MB-453 [8]): 2.32 µM
EC50, CellTiter-Blue viability (SK-BR-3 [14]): 4.27 µM
EC50, CellTiter-Blue viability (BT-474 [15]): 2.5 µM
EC50, CellTiter-Blue viability (MDA-MB-231 [16]): 6.79 µM
EC50, CellTiter-Blue viability (HCC1599 [19]): 4.65 µM
EC50, CellTiter-Blue viability (BT-549 [40]): 7.35 µM
EC50, CellTiter-Glo (MDA-MB-231 [27]): 8.5 µM
EC50, CellTiter-Glo (MDA-MB-453 [29]): 5.05 µM
EC50, CellTiter-Glo (HCC1937 [43]): > 10 µM
Structure (SMILES): COc1cc2nccc(Oc3ccc(NC(=O)Nc4cc(C)on4)c(Cl)c3)c2cc1OC [Tivozanib]
EC50, CellTiter-Blue viability (HDQ-P1 [42]): 0.774 µM
EC50, CellTiter-Blue viability (CAL-51 [10]): 7.8 µM
EC50, CellTiter-Blue viability (MFM-223 [13]): 0.344 µM
EC50, CellTiter-Blue viability (CAL-120 [18]): 4.61 µM
EC50, CellTiter-Blue viability (Hs578T [20]): 4.59 µM
EC50, CellTiter-Glo (MFM-223 [23]): 1.82 µM
EC50, CellTiter-Glo (MCF-10A): 8.73 µM
EC50, CellTiter-Glo (HDQ-P1 [26]): 3.82 µM
